ChEMBL document CHEMBL1126161, “3,4-Dihydroquinolin-2(1H)-ones as combined inhibitors of thromboxane A2 synthase and cAMP phosphodiesterase” (J Med Chem, 1992)

Columns and labels:
Homo sapiens [1] = organism: Homo sapiens; assay: In vitro inhibition of ADP-induced aggregation of human PRP in the presence of pig aortal microsomes (PAM).; format: functional
Homo sapiens [2] = organism: Homo sapiens; assay: Ratio of IC50(w/oPAM)/IC50(w/PAM); format: functional
Homo sapiens [3] = organism: Homo sapiens; assay: Inhibition of ADP-induced aggregation of human PRP in the absence of pig aortal microsomes (PAM); format: functional
Rattus norvegicus [4] = assay: Antihypertensive activity in conscious spontaneously hypertensive rat (SHR), percent change in Systolic blood pressure (SBP) after 2 hr at 10 mg/kg peroral dose; format: functional; conditions: route oral
Rattus norvegicus [5] = assay: Antihypertensive activity in conscious spontaneously hypertensive rat (SHR), percent change in Systolic blood pressure (SBP) after 4 hr at 10 mg/kg peroral dose; format: functional; conditions: route oral
Rattus norvegicus [6] = assay: Antihypertensive activity in conscious spontaneously hypertensive rat (SHR), percent change in heart rate (beats/min) after 4 hr at 10 mg/kg peroral dose; format: functional; conditions: route oral
Rattus norvegicus [7] = assay: Antihypertensive activity in conscious spontaneously hypertensive rat (SHR), percent change in Systolic blood pressure (SBP) after 1 hr; format: functional; parameters: concentration or dose not given beside the values
Rattus norvegicus [8] = assay: Antihypertensive activity in conscious spontaneously hypertensive rat (SHR), percent change in heart rate (beats/min) after 1 hr at 10 mg/kg peroral dose; format: functional; conditions: route oral
Rattus norvegicus [9] = assay: Antihypertensive activity in conscious spontaneously hypertensive rat (SHR), percent change in heart rate (beats/min) after 2 hr at 10 mg/kg peroral dose; format: functional; conditions: route oral
Rattus norvegicus [10] = assay: Effect of TXA2 synthase inhibitor (compound) on serum TXB2 level in rats at 50 mg/kg po, after 2 hr; format: functional
Phosphodiesterase 3 = Phosphodiesterase 3 (Homo sapiens, UniProt Q14432+Q13370); assay: Inhibition of human blood platelet c-AMP phosphodiesterase
Homo sapiens [11] = organism: Homo sapiens; assay: Ratio of IC50(PDE)/IC50(TXA2); format: functional

SMILES | IC50 (Homo sapiens [1]) | IC50 (Homo sapiens [3]) | Ratio (Homo sapiens [2]) | further results
O=C1CCc2cc(C#Cc3cccnc3)ccc2N1 | 11 µM | 240 µM | 22 | Change systolic BP (Rattus norvegicus [4]): -6%; Change systolic BP (Rattus norvegicus [5]): -5%; Change in heart rate (Rattus norvegicus [6]): 22%; Change systolic BP (Rattus norvegicus [7]): -13%; Change in heart rate (Rattus norvegicus [8]): 4%; Change in heart rate (Rattus norvegicus [9]): 15%
CCCCCC(Cc1cccnc1)c1ccc2c(c1)CCC(=O)N2 (stereo unspecified) | 37 µM | – | – | –
O=C1CCc2cc(CCc3cccnc3)ccc2N1 | 8.5 µM | – | – | –
CCCCC/C(=C\c1cccnc1)c1ccc2c(c1)CCC(=O)N2 | 58 µM | – | – | –
O=C1CCc2cc(/C(=C/n3ccnc3)c3ccccc3)ccc2N1 | 28 µM | 270 µM | 9.6 | –
O=C1CCc2cc(/C=C/c3cccnc3)ccc2N1 | 6.2 µM | 95 µM | 15 | Change systolic BP (Rattus norvegicus [4]): -7%; Change systolic BP (Rattus norvegicus [5]): -12%; Change in heart rate (Rattus norvegicus [6]): 32%; Change systolic BP (Rattus norvegicus [7]): -7%; Change in heart rate (Rattus norvegicus [8]): 11%; Change in heart rate (Rattus norvegicus [9]): 23%
O=C1CCc2cc(C(Cn3ccnc3)c3ccccc3)ccc2N1 (stereo unspecified) | 200 µM | – | – | –
C=C(Cn1ccnc1)c1ccc2c(c1)CCC(=O)N2 | 7.6 µM | 74 µM | 9.7 | –

These reach a lower IC50 (Homo sapiens [1]). Values come first.

IC50 (Homo sapiens [1]) | IC50 (Homo sapiens [3]) | SMILES | Ratio (Homo sapiens [2]) | further results
5.5 µM | 350 µM | CC(Cn1ccnc1)c1ccc2c(c1)CCC(=O)N2 (stereo unspecified) | 64 | –
3 µM | 11 µM | O=C1CCc2cc(C(c3ccccc3)c3cccnc3)ccc2N1 (stereo unspecified) | – | –
1.7 µM | 160 µM | O=C1CCc2cc(/C=C/Cn3ccnc3)ccc2N1 | 94 | Change systolic BP (Rattus norvegicus [4]): -17%; Change systolic BP (Rattus norvegicus [5]): 5%; Change in heart rate (Rattus norvegicus [6]): 14%; inhibition in vivo at 50 mg/kg (Rattus norvegicus [10]): -28%; Change systolic BP (Rattus norvegicus [7]): -19%; Change in heart rate (Rattus norvegicus [8]): 15%; Change in heart rate (Rattus norvegicus [9]): 15%
1.6 µM | 13 µM | C/C(=C\n1ccnc1)c1ccc2c(c1)CCC(=O)N2 | 8.1 | –
0.38 µM | 2.8 µM | Oc1ccc2cc(/C=C/n3ccnc3)ccc2n1 | 7.4 | IC50 (Phosphodiesterase 3): 4 µM; Ratio (Homo sapiens [11]): 10.5
